From patent publication US20020037872A1, “N6 heterocyclic 5' modified adenosine derivatives” (CV Therapeutics, Inc., priority 1999, published 2002)

Biological target: T1, A2A AdoR (Cavia porcellus, UniProt P46616)
T1 construct: from tissue; host or cells: guinea pig isolated perfused heart
Experiment: Guinea pig isolated perfused heart: coronary vasodilation (coronary conductance)
Settings: guinea pig isolated perfused hearts; read-out: EC50 to cause coronary vasodilation
Procedure: Guinea pigs of either sex weighing 250-300 g were anesthetized with methoxyflurane and killed by cervical dislocation. The hearts were quickly removed and rinsed in ice-cold Krebs-Henseleit solution. The aorta was cannulated and the heart retrogradely perfused at a constant flow of 10 ml min^−1 with modified Krebs-Henseleit solution containing (mM): NaCL 117.9, KCl 4.8, CaCl2 2.5, MgSO4 1.18, KH2PO4 1.2, Na2EDTA 0.5, ascorbic acid 0.14, glucose 5.5, pyruvic acid (sodium salt) 2.0, and NaHCO3 25. The K—H solution was oxygenated with 95% oxygen and 5% CO2, pH 7.4, and temperature maintained at 36° C.
Coronary perfusion pressure was measured using a pressure transducer that was connected to the aortic cannula via a T-connector. Coronary perfusion pressure (in mmHg) was monitored throughout an experiment and recorded on a 4-channel Gould strip-chart recorder (Gould RS3400, Cleveland, Ohio, U.S.A.). Coronary conductance (in ml min^−1 mmHg^−1) was calculated as the ratio of coronary perfusion rate (10 ml min^−1) and perfusion pressure (mmHg).

T1 sequence (P46616 whole entry, the tested form may be a part): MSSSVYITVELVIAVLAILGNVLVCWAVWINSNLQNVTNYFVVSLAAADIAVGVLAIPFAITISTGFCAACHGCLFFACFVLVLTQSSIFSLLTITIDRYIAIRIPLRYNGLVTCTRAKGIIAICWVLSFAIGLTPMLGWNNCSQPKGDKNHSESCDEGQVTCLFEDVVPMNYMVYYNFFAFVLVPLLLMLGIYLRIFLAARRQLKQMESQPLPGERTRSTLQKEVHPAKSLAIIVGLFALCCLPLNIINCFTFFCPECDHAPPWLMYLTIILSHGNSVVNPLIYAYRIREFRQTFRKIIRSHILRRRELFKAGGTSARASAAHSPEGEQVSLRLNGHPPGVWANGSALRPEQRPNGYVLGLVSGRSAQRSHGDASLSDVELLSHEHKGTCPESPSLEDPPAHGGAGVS

CNC(=O)OC[C@H]1O[C@@H](n2cnc3c(N[C@@H]4CCOC4)ncnc32)[C@H](O)[C@@H]1O [Compound 6, (5-16[((3R)oxolan-3-yl)aminolpurin-9-yl)(3S,2R,4R,5R)-3,4dihydroxyoxolan-2yl)methoxyl-N-methylearboxamide]
EC50: 31 ± 5.1 µM
